Measurements as given in patent US4607010A, “Analytical process and means for measuring protease inhibitor capacity of serum” (priority 1984, dated 1986).

Columns and labels:
Chymotrypsin = test: Fixed time active-site titration of chymotrypsin with DPCF (fluoride electrode); format: biochemical; conditions: for % Active: active concentration as percentage of total mass; for F^-: pH 5.5, two hours, room temperature, mean of duplicates, blank 10.60
Description: (§1) Diphenylcarbamyl fluoride is a specific inactivator for both α-chymotrypsin and trypsin. […] The fixed time pseudoequilibrium can nevertheless be used for the assay of both enzymes since the number of moles of F^- released is stoichiometrically related to the active concentration of either two enzymes.
The reagent solutions were the same as described in Example 1. The assay procedure was however modified in the following manner. Into the plastic beaker, 4.8 ml of assay buffer, […] of either enzyme solution and 100 μl of DPFC solution were added. A blank was prepared in a similar manner by substituting 100 μl of a 2 mM HCl for the enzyme solution. All solutions were left at room temperature for two hours. Following that the F^- concentration was then measured by the fluoride electrode. […].
The difference in the relative-rates of F^- generation with chymotrypsin solution and chymotrypsin solution with serum was used to estimate serum protease inhibitor capacity. The assay buffer and DPCF solution were prepared as described in Example 5. Chymotrypsin solution 2.0 μM corresponding to 1.46 μM active mass was prepared by dilution of stock chymotrypsin solution as described in Example 1.

Trypsin = test: Fixed time active-site titration of trypsin with DPCF (fluoride electrode); format: biochemical; conditions: for % Active: active concentration as percentage of total mass; for F^-: pH 5.5, two hours, room temperature, mean of duplicates, blank 10.60
Description: as §1
The reagent solutions were the same as described in Example 1. The assay procedure was however modified in the following manner. Into the plastic beaker, 4.8 ml of assay buffer, […] of either enzyme solution and 100 μl of DPFC solution were added. A blank was prepared in a similar manner by substituting 100 μl of a 2 mM HCl for the enzyme solution. All solutions were left at room temperature for two hours. Following that the F^- concentration was then measured by the fluoride electrode. […]

[1] = enzyme concentration 2 μM (mass)
[2] = enzyme concentration 5 μM (mass)
[3] = enzyme concentration 10 μM (mass)
[4] = mean over 2, 5 and 10 μM (mass)

Chymotrypsin
active concentration (Chymotrypsin; chymotrypsin solution 2.0 μM (mass)): 1.46 µM
% Active (Chymotrypsin; [1]): 80.0%
F^- (Chymotrypsin; [1]): 12.20 µM
% Active (Chymotrypsin; [2]): 72.2%
F^- (Chymotrypsin; [2]): 14.21 µM
% Active (Chymotrypsin; [3]): 70.4%
F^- (Chymotrypsin; [3]): 17.64 µM
% Active Mean ± Stand. Dev. (Chymotrypsin; [4]): 74.2 ± 4.2%

Trypsin
% Active (Trypsin; [1]): 77.5%
F^- (Trypsin; [1]): 12.12 µM
% Active (Trypsin; [2]): 69.4%
F^- (Trypsin; [2]): 14.00 µM
% Active (Trypsin; [3]): 65.7%
F^- (Trypsin; [3]): 17.12 µM
% Active Mean ± Stand. Dev. (Trypsin; [4]): 70.9 ± 4.9%
